# Results: patent publication US4266048A, “Synthesis of analogs of 3'-phosphoadenosine 5'-phosphosulfate (PAPS)” (The United States of America as represented by the …, priority 1978, dated 1981)
# Counter-ions that a name gives are not always drawn.
# Columns and labels:
# [1] = biological target: T1, bovine adrenal estrogen sulfotransferase (EC 2.8.2.4) (Bos taurus, UniProt P19217); experiment: Relative sulfurylation rate (RSR): enzymic transfer of sulfate from analogs IV and V to estrone at saturating steroid; conditions: for RSR (in words): sulfurylation of estrone relative to IVa (RSR=1); for reduction in RSR relative to IVa: 200 μM, may be a result of inhibition by coproducts; for calculated level of coproduct produced: nucleotide at 200 μM
# T1 sequence (P19217 1-295): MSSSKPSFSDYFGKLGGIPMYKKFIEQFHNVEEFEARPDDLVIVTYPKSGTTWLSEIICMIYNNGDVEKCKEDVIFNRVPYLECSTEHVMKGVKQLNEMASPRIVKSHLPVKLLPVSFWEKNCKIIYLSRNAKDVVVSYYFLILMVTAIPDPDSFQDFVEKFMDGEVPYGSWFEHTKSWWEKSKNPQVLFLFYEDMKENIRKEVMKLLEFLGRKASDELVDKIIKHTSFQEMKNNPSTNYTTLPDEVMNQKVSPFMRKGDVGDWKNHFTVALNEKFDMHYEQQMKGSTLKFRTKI
# Storage stability = assay type: physicochemical; conditions: 50% ethanol at -20° C.
# Method: Fractions containing Compound IVa were pooled and the buffer was removed in the usual manner. The product was redissolved in approx. 3 ml of H2 O and the solution was adjusted to pH 7 with dilute NH4 OH. Treatment of a small aliquot of the latter with an equal volume of 0.2 M HCl at 37° C. for 1.75 h gave adenosine 3',5'-diphosphate as the sole detectable product in Systems S1 and S2. Compound IVa was homogeneous in S1, S2, E1 and E2. […] Compound IVa gave yields of 68-72% based on Compound IIa.
# [2] = biological target: T1, bovine adrenal estrogen sulfotransferase (EC 2.8.2.4); experiment: Sulfate transfer to [6,7-3H2]estrone by Compounds IVa and Va (biological activity); assay type: biochemical
# Method: The biological activity of IV (like PAPS) may be measured by sulfate transfer to [6,7-^3 H2 ]estrone as mediated by bovine adrenal estrone sulfotransferase (3'-phosphoadenylylsulfate:estrone 3-sulfotransferase, EC 2.8.2.4) and is identical with that obtained with a sample of IV prepared by an established biochemical procedure.
# Biological activity of IVa and Va was determined by sulfate transfer to [6,7-^3 H2 ]estrone in the presence of bovine adrenal estrogen sulfotransferase (E.C. 2.8.2.4).
# Bovine spleen phosphodiesterase II (E.C. 3.1.4.18) and ribonuclease T2 were purchased from Sigma Chemical Company. Bovine adrenal estrogen sulfotransferase (E.C. 2.8.2.4.) was isolated and purified as described by Adams et al, Biochim. Biophys. Acta, 370:160-188 (1974). [^35 S]PAPS and [6,7-^3 H2 ]-estrone were purchased from New England Nuclear Corp.
# Sulfation of estrone with synthetic Compound IVa (PAPS) was determined using the procedure described in the article by Rozhin et al, ante. Sulfation by Compound Va was as follows. The ability of Compound Va to donate its sulfate to estrone was determined with [6,7-^3 H2 ]estrone (1.3·10^6 dpm/4 nmol) by modification of the above-mentioned Rozhin et al method in which Compound Va (0.11 mM) […] for Compound IVa.
# After termination of the incubation, excess free [^3 H]estrone was extracted three times with 0.3 ml of ethyl ether and the aqueous sample adjusted to 0.5 ml with redistilled methanol. An aliquot (25 μl) was applied, together with 15 μg of methanolic estrone sulfate marker, to type SG chromatography media (Gelman Instrument Co., Ann Arbor, Michigan) and developed with chloroform/acetone/acetic acid (110:35:6). Estrone sulfate was visualized by spraying with methylene blue and the spot punched out with a cork borer and counted in 10 ml of Bray's dioxane scintillation solution. […] The amount of steroid sulfate ester produced was calculated utilizing the specific activity of [^3 H]estrone.
# [3] = biological target: T1, bovine adrenal estrogen sulfotransferase (EC 2.8.2.4); parameters: Ki data from Horwitz et al 1977; conditions: cited from earlier work; for enzyme affinity / effect of coproduct (in words) / Ki of coproduct: estrogen sulfotransferase; for enzyme affinity / effect of coproduct (in words): discussion of Ki values; for Ki of coproduct: unit not given
# [4] = biological target: T1, bovine adrenal estrogen sulfotransferase (EC 2.8.2.4); experiment: Inhibition / affinity of desulfurylated nucleotides (coproducts) on estrogen sulfotransferase; assay type: biochemical; parameters: Ki data from Horwitz et al 1977; conditions: product of the reaction
# Excerpt: ^b Data taken from Tables II and III of Horwitz et al, Biochim.
smiles,measurement,setting,value
"Nc1ncnc2c1ccn2[C@@H]1O[C@H](COP(=O)(O)OS(=O)(=O)O)[C@@H](O)[C@H]1OP(=O)(O)O [2'P(7-deaza-Ado)5'PS, tubercidin 2'-phosphate 5'-phosphosulfate]",RSR (in words),[1],relatively low
"Nc1ncnc2c1ncn2[C@@H]1O[C@H](COP(=O)(O)OS(=O)(=O)O)[C@@H](OP(=O)(O)O)[C@H]1O [3'PAdo5'PS, adenosine 3'-phosphate 5'-phosphosulfate]",storage stability,Storage stability,kept indefinitely
same,saturation curves for IV from two sources,"[2]; IV 15-100 μM, [6,7-3H2]estrone 100 μM",essentially superimposable
same,activity compared with PAPS from enzymatic/biochemical procedure,"[2]; sulfate transfer to [6,7-3H2]estrone, listed as IV",virtually identical
Nc1ncnc2c1ccn2[C@@H]1O[C@H](COP(=O)(O)O)[C@@H](O)[C@H]1OP(=O)(O)O [2'P(7-deaza-Ado)5'P],enzyme affinity / effect of coproduct (in words),[3],has an effect on the estrogen sulfotransferase reaction
same,Ki of coproduct,[3],compares favorably with that of 3'PAdo5'P
"Nc1ncnc2c([C@@H]3O[C@H](COP(=O)(O)O)[C@@H](OP(=O)(O)O)[C@H]3O)n[nH]c12 [3'PFo5'P, formycin (7-amino-3-(β-D ribofuranosyl)pyrazolo-[4,3-d]-pyrimidine) 3',5'-diphosphate]",enzyme affinity / effect of coproduct (in words),[3],intermediate affinity
"Nc1ncnc2c1ccn2[C@@H]1O[C@H](COP(=O)(O)O)[C@@H](OP(=O)(O)O)[C@H]1O [3'P(7-deaza-Ado)5'P, tubercidin (4-amino-7-(β-D-ribofuranosyl)-7H-pyrrolo-[2,3-d]-pyrimidine) 3',5'-diphosphate]",enzyme affinity / effect of coproduct (in words),[3],enhanced affinity
"Nc1ncnc2c1ncn2[C@@H]1O[C@H](COP(=O)(O)O)[C@@H](O)[C@H]1OP(=O)(O)O [2'PAdo5'P, adenosine 2',5'-diphosphate]",Ki of desulfurylated nucleotide (coproduct),"[3]; data taken from Horwitz et al, Biochim. Biophys. Acta, 480:376-381 (1977)",.infin.
same,enzyme affinity / effect of coproduct (in words),[3],weak and devoid of activity
same,Ki of coproduct,[3],.infin.
"O=P(O)(O)OC[C@H]1O[C@@H](n2cnc3c(O)ncnc32)[C@H](O)[C@@H]1OP(=O)(O)O [3'PIno5'P, inosine 3',5'-diphosphate]",enzyme affinity / effect of coproduct (in words),[3],substantial loss of enzyme affinity
"O=P(O)(O)OC[C@H]1O[C@@H](n2cnc3cncnc32)[C@H](O)[C@@H]1OP(=O)(O)O [3'PPuo5'P, nebularine (9-β-D-ribofuranosylpurine) 3',5'-diphosphate]",enzyme affinity / effect of coproduct (in words),[3],substantial loss of enzyme affinity
"O=c1[nH]cnc2c1ncn2[C@@H]1O[C@H](COP(=O)(O)OS(=O)(=O)O)[C@@H](OP(=O)(O)O)[C@H]1O [3'PIno5'PS, inosine 3'-phosphate 5'-phosphosulfate]",RSR (in words),[1],low
same,RSR (in words),[1]; listed as IVd,only minimal
"Nc1ncnc2c([C@@H]3O[C@H](COP(=O)(O)OS(=O)(=O)O)[C@@H](OP(=O)(O)O)[C@H]3O)n[nH]c12 [3'PFo5'PS, formycin 3'-phosphate 5'-phosphosulfate]",RSR (in words),[1],modest capacity to sulfurylate estrone
"O=P(O)(O)O[C@H]1[C@@H](O)[C@H](n2cnc3cncnc32)O[C@@H]1COP(=O)(O)OS(=O)(=O)O [3'PPuo5'PS, nebularine 3'-phosphate 5'-phosphosulfate]",RSR (in words),[1],low
same,RSR (in words),[1]; listed as IVc,only minimal
"Nc1ncnc2c1ccn2[C@@H]1O[C@H](COP(=O)(O)OS(=O)(=O)O)[C@@H](OP(=O)(O)O)[C@H]1O [3'P(7-deaza-Ado)5'PS, tubercidin 3'-phosphate 5'-phosphosulfate]",reduction in RSR relative to IVa,[1],14-15%
same,calculated level of coproduct produced,[1],4 µM
same,RSR (in words),[1]; listed as 3'PTu5'PS,compare favorably with active sulfate itself
same,RSR (in words),[1]; listed as IVe,the largest
"Nc1ncnc2c1ncn2[C@@H]1O[C@H](COP(=O)(O)OS(=O)(=O)O)[C@@H](O)[C@H]1OP(=O)(O)O [2'PAdo5'PS, adenosine 2'-phosphate 5'-phosphosulfate]",RSR at 200 μM (expected),[1]; expected value at 200 μM concentration,~0.29
same,saturation concentration,[1]; stated in Table III footnote c,100 µM
same,activity relative to the natural isomer,"[2]; Iso-PAPS, sulfate transfer to [6,7-3H2]estrone",approximately one-third
same,activity relative to the natural isomer (IVa),[2]; sulfate transfer to estrone,approximately one-third
C[C@]12CC[C@@H]3c4ccc(OS(=O)(=O)O)cc4CC[C@H]3[C@@H]1CCC2=O [Estrone sulfate],effect on the estrogen sulfotransferase reaction,[4],little or no effect
"Nc1ncnc2c1nc(Br)n2[C@@H]1O[C@H](COP(=O)(O)OS(=O)(=O)O)[C@@H](OP(=O)(O)O)[C@H]1O [3'P8-BrAdo5'PS, 8-bromoadenosine 3'-phosphate 5'-phosphosulfate]",reduction in RSR relative to IVa,[1],14-15%
same,calculated level of coproduct produced,[1],4 µM
same,RSR (in words),[1],compare favorably with active sulfate itself
same,RSR (in words),[1]; listed as IVb,the largest
